Measured values reported in patent US5710129A, “Inhibitors of SH2-mediated processes” (Ariad Pharmaceuticals, Inc., priority 1995, dated 1998).
pIC50: −log10 of the molar value. Values joined by “and” are separate entries in the source; they are usually repeats but may differ in a detail not shown here. Equal values may be shown once. Read-outs that look alike come from different tables or passages of the source. Square brackets hold non-standard residues; d marks the D form. Peptide text beside a SMILES is read from it. * marks the point of attachment. Tyr(3,5-(NO2)2) = N[C@@H](Cc1cc([N+](=O)[O-])c(O)c([N+](=O)[O-])c1)C(=O)O; Acetyl(9-fluorenyl) = O=C(CC1c2ccccc2-c2ccccc21)*; Propanoyl(3,3-Ph2) = O=C(CC(c1ccccc1)c1ccccc1)*; Acetyl(1-naphthyl) = O=C(Cc1cccc2ccccc12)*; Acetyl(2-naphthyl) = O=C(Cc1ccc2ccccc2c1)*; Fmoc = O=C(OCC1c2ccccc2-c2ccccc21)*; Butanoyl(4-Ph) = O=C(CCCc1ccccc1)*

Tests used:
[1] = biological target: T1, pp70^ZAP (1-259) (Homo sapiens, UniProt P43403); assay: Tandem ZAP competitive binding assay, surface plasmon resonance (BIAcore); settings: for pIC50: read-out: N,CZap IC-50
T1 sequence (P43403 1-259): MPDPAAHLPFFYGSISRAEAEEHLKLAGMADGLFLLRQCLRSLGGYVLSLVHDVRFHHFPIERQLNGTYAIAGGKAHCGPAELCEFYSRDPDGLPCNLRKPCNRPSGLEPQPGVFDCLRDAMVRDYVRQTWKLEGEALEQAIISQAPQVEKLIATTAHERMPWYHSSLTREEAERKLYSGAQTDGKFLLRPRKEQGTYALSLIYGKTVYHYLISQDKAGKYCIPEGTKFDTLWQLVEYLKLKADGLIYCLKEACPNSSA
Protocol: (§1) Binding was measured by competition using surface plasmon resonance (Malmqvist, M. (1993) Current Opinions in Immunology 5, 282-286) as implemented in the BIAcore Biosensor (Pharmacia Biosensor, Piscataway, N.J.). […] Results were compared to binding measured in the absence of competitor and expressed as percent inhibition. IC50values reflect the concentration of inhibitor required to reduce binding by 50%. Specifics of individual assays are described below. All asssays were run in HEPES Buffered Saline (HBS) composed of 10 mM HEPES (pH 7.4)/150 mM NaCl/3.4 mM EDTA/0.05% Surfactant P20at 25° C. and a flow rate of 5 uL min^-1.
A pp70^ZAP peptide ligand corresponding to the .zeta.-chain ITAM-1 of the human T-cell receptor [NQLY(PO4)NELNIGRREEY(PO4)DVLD] [SEQ ID NO:20] was synthesized as a part of a larger peptide [Ac-KGGNQLY(PO4)NELNIGRREEY-(PO4)DVLD-NH2 ] [SEQ ID NO:21] and used to generate a ZAP-sensitive biosensor surface. Specifically, a Biosensor Chip CM5was activated with 200 mM EDC/50 mM NHS to generate a surface reactive to primary amines and the ITAM peptide immobilized through the N-terminal lysine. Unreacted sites were blocked with ethanolamine (1M in water) and the chip cleaned of non-covalently bound peptide using 6M guanidine hydrochloride. Assays were run in HBS using 10 nM pp70^ZAP (1-259)±test inhibitor. (The designation "b22" indicates use of a corresponding γ-chain ITAM for the .zeta.-chain ITAM.)

[2] = biological target: T2, pp60^src (144-251) (Homo sapiens, UniProt P12931); assay: Src competitive binding assay, surface plasmon resonance (BIAcore); settings: for pIC50: 270 nM protein, hamster Middle-T antigen phosphopeptide as ligand, read-out: Src IC-50
T2 construct: Assays were run in HBS using 270 nM pp60^src (144-251)
T2 sequence (P12931 144-251): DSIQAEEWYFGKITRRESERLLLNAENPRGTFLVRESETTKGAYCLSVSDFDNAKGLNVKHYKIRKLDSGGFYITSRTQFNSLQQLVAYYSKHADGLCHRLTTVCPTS
Protocol: as §1
A p60^src peptide ligand corresponding to the hamster Middle-T antigen [QY(PO4)EEIPI] [SEQ ID NO:22] was synthesized as a part of a larger peptide [Ac-KGGQY(PO4)EEIPI-NH2 ] [SEQ ID NO:23] and used to generate a src-sensitive biosensor surface as described above for tandem ZAP. Assays were run in HBS using 270 nM pp60^src (144-251)±test inhibitor.

[3] = biological target: T3, pp72^syk (1-265) (Homo sapiens, UniProt P43405); assay: Tandem Syk competitive binding assay, surface plasmon resonance (BIAcore); settings: for pIC50: read-out: N,CSyk IC-50
T3 construct: Assays were run in HBS using 20 nM pp72^syk (1-265)
Protocol: as §1
A pp72^syk peptide ligand corresponding to the γ-chain ITAM of human Fcε RI [DGVY(PO4)TGLSTRNQETY(PO4)ETLK] [SEQ ID NO:18] was synthesized as part of a larger peptide [Ac-CGGDGVY(PO4)TGLSTRNQETY-(PO4)ETLK-NH2] [SEQ ID NO:19] and used to generate a Syk-sensitive biosensor surface. Specifically, a Biosensor Chip CM5was activated with 200 mM ethyl-3-(3-dimethylaminopropyl)-carbodiimide hydrochloride (EDC)/50 mM N-hydroxysuccinimide (NHS) to generate a surface reactive to primary amines; treated with ethylenediamine to generate a surface rich in primary amines; activated with m-maleimidobenzoyl-N-hydroxysuccinimide ester (sulfo-MBS; 50 mM in 25 mM NaHCO3) to generate a surface reactive to free thiols; and the ITAM peptide immobilized through the N-terminal cysteine. Unreacted sites were blocked with β-mercaptoethanol and the chip cleaned of noncovalently bound peptide using 6M guanidine hydrochloride. Assays were run in HBS using 20 nM pp72^syk (1-265)±test inhibitor.

[4] = biological target: T4, pp72^syk (163-265) (Homo sapiens, UniProt P43405); assay: C-Syk competitive binding assay, surface plasmon resonance (BIAcore); settings: 270 nM protein; hemiphosphorylated γ-chain ITAM of human FcεRI as ligand; read-out: CSyk IC-50
T4 construct: Assays were run in HBS using 270 nM pp72^syk (163-265)
Protocol: as §1
A pp72^syk peptide ligand corresponding to a hemiphosphorylated γ-chain ITAM of human Fcε RI [DGVY(PO4)TGLSTRNQETYETLK] was synthesized as part of a larger peptide [Ac-CGGDGVY(PO4)TGLSTRNQETYETLK-NH2 ] and used to generate a C-Syk-sensitive biosensor surface as described above for tandem syk. Assays were run in HBS using 270 nM pp72^syk (163-265)±test inhibitor.

[5] = 10 nM protein, ζ-chain ITAM-1 of human T-cell receptor as ligand
[6] = 20 nM protein, γ-chain ITAM of human FcεRI as ligand

SMILES	pIC50 [1, 5]	pIC50 [2]	pIC50 [3, 6]	pIC50 [4]	further results
CC(C)C[C@H](NC(=O)[C@@H](NC(=O)[C@H](CCC(=O)O)NC(=O)[C@H](Cc1cc([N+](=O)[O-])c(O)c([N+](=O)[O-])c1)NC(=O)Cc1cccc2ccccc12)[C@@H](C)O)C(N)=O ({Acetyl(1-naphthyl)}-[Tyr(3,5-(NO2)2)]ETL-NH2)	< 4.00	< 3.00	4.00	4.62	–
CC(C)C[C@H](NC(=O)[C@@H](NC(=O)[C@H](CCC(=O)O)NC(=O)[C@H](Cc1cc([N+](=O)[O-])c(O)c([N+](=O)[O-])c1)NC(=O)Cc1ccc2ccccc2c1)[C@@H](C)O)C(N)=O ({Acetyl(2-naphthyl)}-[Tyr(3,5-(NO2)2)]ETL-NH2)	< 4.00	3.30	–	4.70	N,CSyk percent inhibition ([3]; @ 50 (μM)): 30%
CC(C)C[C@H](NC(=O)[C@@H](NC(=O)[C@H](CCC(=O)O)NC(=O)[C@H](Cc1cc([N+](=O)[O-])c(O)c([N+](=O)[O-])c1)NC(=O)CC1c2ccccc2-c2ccccc21)[C@@H](C)O)C(N)=O ({Acetyl(9-fluorenyl)}-[Tyr(3,5-(NO2)2)]ETL-NH2)	< 4.00	3.15	4.30	4.59	–
CC(C)C[C@H](NC(=O)[C@@H](NC(=O)[C@H](CCC(=O)O)NC(=O)[C@H](Cc1cc([N+](=O)[O-])c(O)c([N+](=O)[O-])c1)NC(=O)CCCc1ccccc1)[C@@H](C)O)C(N)=O ({Butanoyl(4-Ph)}-[Tyr(3,5-(NO2)2)]ETL-NH2; N-terminus assumed)	–	–	–	–	N,CSyk 1%/Min [3, 6]: 48 µM
CC(C)C[C@H](NC(=O)[C@@H](NC(=O)[C@H](CCC(=O)O)NC(=O)[C@H](Cc1cc([N+](=O)[O-])c(O)c([N+](=O)[O-])c1)NC(=O)CC(c1ccccc1)c1ccccc1)[C@@H](C)O)C(N)=O ({Propanoyl(3,3-Ph2)}-[Tyr(3,5-(NO2)2)]ETL-NH2)	–	< 3.00	4.00	4.82	N,CZap inhibition ([1]; @ 1000 (μM)): ni
CC(C)C[C@H](NC(=O)[C@@H](NC(=O)[C@H](CC(=O)O)NC(=O)[C@H](Cc1cc([N+](=O)[O-])c(O)c([N+](=O)[O-])c1)NC(=O)OCC1c2ccccc2-c2ccccc21)C(C)C)C(N)=O [DVLNH2] (Fmoc-[Tyr(3,5-(NO2)2)]DVL-NH2)	< 4.00	–	4.62 and 4.52	–	Src percent inhibition ([2]; @ 100 (μM)): 25%
CC(C)C[C@H](NC(=O)[C@@H](NC(=O)[C@H](CCC(=O)O)NC(=O)[C@H](Cc1cc([N+](=O)[O-])c(O)c([N+](=O)[O-])c1)NC(=O)OCC1c2ccccc2-c2ccccc21)[C@@H](C)O)C(N)=O [ETLNH2] (Fmoc-[Tyr(3,5-(NO2)2)]ETL-NH2)	3.46	< 3.00	4.10 and 4.09	4.52	pIC50 ([1]; b22: corresponding γ-chain ITAM used for the ζ-chain ITAM): 4.70
CC(C)C[C@H](NC(=O)[C@H](CCC(=O)O)NC(=O)[C@H](CC(N)=O)NC(=O)[C@H](Cc1cc([N+](=O)[O-])c(O)c([N+](=O)[O-])c1)NC(=O)OCC1c2ccccc2-c2ccccc21)C(N)=O [NELNH2] (Fmoc-[Tyr(3,5-(NO2)2)]NEL-NH2)	–	–	–	–	N,CZap percent inhibition ([1]; @ 50 (μM)): 10%; Src percent inhibition ([2]; @ 50 (μM)): 5%; N,CSyk percent inhibition ([3]; @ 50 (μM)): 15%
CC(C)C[C@H](NC(=O)CNC(=O)[C@@H](NC(=O)[C@H](Cc1cc([N+](=O)[O-])c(O)c([N+](=O)[O-])c1)NC(=O)OCC1c2ccccc2-c2ccccc21)[C@@H](C)O)C(N)=O [TGLNH2] (Fmoc-[Tyr(3,5-(NO2)2)]TGL-NH2)	–	–	–	–	N,CSyk percent inhibition ([3]; @ 23 (μM)): 35%
